According to patent US20040053852A1, “Preventing desensitization of receptors” (priority 2001, published 2004):

Columns and labels:
GRK = GRK phosphorylation of a synthetic peptide substrate with 32P-ATP (isolated system); assay type: biochemical; settings: 500 μM, 50 μM, 5 μm, FIG. 3
Protocol: An isolated system was provided consisting of medium, GRK, standard synthetic peptide substrate and radiolabeled ^32P-adenosine triphosphate, i.e., ^32P-ATP, as a source of phosphate. Runs were carried out on the system without additives, and with 500 μM glutathione (GSH) present and with GSNO (500 μM) present or with GSNO (50 μM) present or with GSNO (5 μm) present. The amount of bound ^32P was measured in counts per minute (CPM).

heart muscle = assay: Ratio of heart weight to body weight after 1 week continuous infusion; assay type: in vivo; settings: mice, FIG. 1
Protocol: Mice were treated with 10/ng/kg/day of GSNO, or with PBS (control) or with isoproterenol (at a dosage of 30 mg/kg/day) or with 10 mg/kg/day of GSNO plus 30 mg/kg/day isoproterenol, infused continuously for 1 week. The animals were sacrificed and the hearts were weighed and a ratio of heart weight to body weight was determined for each case. The results are set forth in FIG. 1 where hw:bw, i.e., the legend on the vertical axis, is the ratio of heart weight to total body weight and “ISO” means isoproterenol. […] The increase in size of heart (hypertrophy) is an advantage especially in the case of a patient on a left ventricular heart assist device awaiting heart transplant and in the case of a patient who has had heart surgery and cannot be disconnected from a heart pump without loss of heart function. The asterisks in FIG. 1 mean […] compared to control.

[1] = Patient with cystic fibrosis, shortness of breath (Example VI); assay type: in vivo, human; settings: inhaled GSNO 3 cc of a 10 mM solution, pH 7, 4×/day
Protocol: A person with cystic fibrosis enters the hospital complaining of shortness of breath. […] They are started on inhaled GSNO (3 cc of a 10 mM solution, pH 7, 4×/day).

[2] = Patient with class 4 congestive heart failure (Example I); assay type: in vivo, human
Protocol: A person with class 4 congestive heart failure enters the hospital with shortness of breath and bradyacardia. […] The patient is subsequently switched to IV dobutamine at 10 μg per kg per minute titrated to cardiac output. Over the following three days the drug is increased to 30 μg per kg per minute to maintain cardiac output. […] The patient undergoes bypass surgery and does well even though they have been viewed as at high risk.

[3] = Patient with metastatic prostate cancer, bone pain unresponsive to opiates (Example IV); assay type: in vivo, human; settings: intravenous GSNO 10 nmol per kg per minute in conjunction with morphine
Excerpt: A person with metastatic prostate cancer is suffering from severe bone pain unresponsive to opiates.

β-adrenergic receptor = assay: Saturation binding with radiolabeled I125-cyanopindolol in purified cardiac membrane of treated mice; assay type: in vivo; settings: GSNO 10 ng/kg/day plus isoproterenol 30 mg/kg/day for 7 days
Protocol: Mice were treated with 10 ng/kg/day of GSNO or PBS infused continuously for 1 week through an azlet miniosmotic pump placed subcutaneously. Another set of mice was treated for 7 days with isoproterenol (30 mg/kg/day), and the fourth and final group received for 7 days, isoproterenol (30 mg/kg/day) plus GSNO (10 ng/kg/day). The mice were sacrificed and heart tissue was removed.

[4] = Heroine addict, dose tapering, withdrawal symptoms (Example V); assay type: in vivo, human; settings: ethyl nitrite intravenously 2 nmol per kg per minute
Excerpt: A heroine addict enters a clinic where their dose is tapered gradually. In order to avoid symptoms of withdrawal, ethyl nitrite is started intravenously at 2 nmol per kg per minute and symptoms of withdrawal, including sweats and shaking, are ameliorated.

Question: With `N[C@@H](CSN=O)C(=O)O` [S-nitroso-cysteine] as the compound, how does the “incorporation of 32P into synthetic peptide substrate (bound 32P, CPM)” value (GRK) read?
Answer: Its value is “same result of GRK inhibition and interference with substrate phosphorylation”.

Question: With `N[C@@H](CCC(=O)N[C@@H](CSN=O)C(=O)NCC(=O)O)C(=O)O` [GSNO, S-nitrosoglutathione] as the compound, how does the “size of heart muscle (hw:bw, ratio of heart weight to total body weight)” value (heart muscle; 10 mg/kg/day of GSNO plus 30 mg/kg/day isoproterenol infused continuously 1 week) read?
Answer: Its value is “even more effect in increasing size of heart muscle”.

Question: What about the “size of heart muscle (hw:bw, ratio of heart weight to total body weight)” value (heart muscle; GSNO 10/ng/kg/day infused continuously 1 week) of the same compound?
Answer: The value was “increases the size of the heart muscle”.

Question: What about the “incorporation of 32P into synthetic peptide substrate (bound 32P, CPM)” value (GRK) of the same compound?
Answer: The value was “concentration dependent reduction in incorporation of ^32P”.

Question: What about the “FEV1, acute change” value [1] of the same compound?
Answer: Its value is “does not change acutely”.

Question: And the “FEV1 over the following 48 hours” value [1]?
Answer: The value was “corresponding improvement in FEV1”.

Question: What about the “symptoms of shortness of breath” value ([1]; following 48 hours) of the same compound?
Answer: The value was “resolve over the following 48 hours”.

Question: What about the cardiac output ([2]; IV GSNO 2 nmol per kg per minute, on dobutamine 30 μg per kg per minute) of the same compound?
Answer: Its cardiac output is “cardiac output improved over the following 24 hours”.

Question: And the bone pain [3]?
Answer: Its bone pain is “now relieves their pain”.

Question: And the “amount of β-adrenergic receptor” value (β-adrenergic receptor)?
Answer: The value was 90 fmol per mg protein.

Question: What does the source list for `CC(C)NCC(O)c1ccc(O)c(O)c1` (stereo not shown) [isoproterenol, reference compound]?
Answer: size of heart muscle (hw:bw, ratio of heart weight to total body weight) (heart muscle; isoproterenol 30 mg/kg/day infused continuously 1 week): increased the size of the heart muscle; symptoms (shortness of breath, bradyacardia) ([2]; intravenous isoproterenol 10 μg per minute): resolution of symptoms

Question: For `CCON=O` [ethyl nitrite], which symptoms of withdrawal [4] is on record?
Answer: The symptoms of withdrawal was “ameliorated”.
